Results as given in paper PMC9146215, “Design of D-Amino Acids SARS-CoV-2 Main Protease Inhibitors Using the Cationic Peptide from Rattlesnake Venom as a Scaffold” (Pharmaceuticals, 2022).
Positions of bridges follow the written chain, without caps; N, C: chain ends. Non-standard residues stand in square brackets, D forms with d. Residues, ends and D or L forms follow the SMILES beside them. No end group written: not given here.

Assays:
[1] = target: T1, SARS-CoV-2 3CL^pro (Severe acute respiratory syndrome coronavirus 2, UniProt P0DTD1); test: SARS-CoV-2 3CLpro fluorogenic (DABCYL/EDANS substrate) inhibition assay; format: biochemical; conditions: 0.5 µM 3CLpro, n = 3; for IC50: 30 min pre-incubation with inhibitor at RT, 50 µM substrate, 37 °C, pH 7.2, 1 mM TCEP, mean ± SD, read-out: IC50 [µM] ± STD
T1 construct: SARS-CoV-2 3CL^pro (Uniprot entry: P0DTD1, virus strain: hCoV-19/Wuhan/WIV04/2019) was cloned, expressed, and purified; GST (cleaved yes); made in house; host or cells: E. coli Lemo21 (DE3)
Method: The SARS-CoV-2 3CL^pro activity assay was performed using DABCYL-KTSAVLQ/SGFRKME-EDANS (Bachem, Switzerland) as substrate.
SARS-CoV-2 3CL^pro activity assay was performed using a fluorogenic substrate DABCYL-KTSAVLQ↓SGFRKME-EDANS (Bachem, Bubendorf, Switzerland) in a buffer containing 20 mM Tris pH 7.2, 200 mM NaCl, 1 mM EDTA, and 1 mM TCEP [31, 32, 33, 34]. The reaction mixture was pipetted in a Corning 96-well plate (Merck, Darmstadt, Germany) containing 0.5 µM protein. The assay was initiated with the addition of the substrate at a final concentration of 50 µM. The fluorescence intensities were measured at 60 s intervals over 30 min using an Infinite 200 PRO plate reader (Tecan, Männedorf, Switzerland), and the temperature was set to 37 °C. The excitation and emission wavelengths were 360 and 460 nm, respectively.
The activity assay described above investigated the inhibition of SARS-CoV-2 3CL^pro activity by Cro, L- and D-CDPs. 30 µM of the peptides was used for a preliminary screening test.
For the final inhibition assays, 0.5 µM of the protein was mixed with 0–300 µM Cro, 0–150 µM L-CDPs, and 0–125 µM D-CDPs and subsequently incubated for 30 min at RT. An additional experiment was conducted where the substrate and the inhibitor were added simultaneously (without incubation). When the substrate with a final concentration of 50 µM was added to the mixture, the fluorescence intensities were measured at 60 s intervals over 30 min using an Infinite 200 PRO plate reader (Tecan, Männedorf, Switzerland). The temperature was set to 37 °C, and the excitation and emission wavelengths were 360 and 460 nm, respectively. Inhibition assays were performed in triplicate.
The IC50 value was calculated by plotting the initial velocity against various concentrations of the combined molecules using a dose-response curve in GraphPad Prism5 software […]. Data are presented as mean ± SD.

[2] = target: T1, SARS-CoV-2 3CL^pro; test: Detergent-based (Triton X-100) control assay for aggregation-based promiscuous inhibition; format: biochemical; conditions: 0.001%, 0.01%, 0.1% Triton X-100; four peptide concentrations; triplicate
Method: A detergent-based control assay was performed to exclude inhibitors that possibly act as aggregators of the 3CL^pro by adding 0.001%, 0.01%, and 0.1% of Triton X-100 to the reaction. […] All measurements were performed in triplicate, and data are presented as mean ± SD.

[3] = target: T1, SARS-CoV-2 3CL^pro; test: Inhibitor stability over 24 h (24 h inhibition experiment); format: biochemical; conditions: 0.5 µM 3CLpro with 5 µM peptide, 1/2 h to 24 h at RT, triplicate
Method: Briefly, 0.5 µM SARS-CoV-2 3CL^pro was incubated with 5 µM of the peptide and incubated for 1/2 h, 1 h, 2 h, 3 h, 4 h, 5 h, and 24 h at RT. The control was performed with the 3CL^pro in the absence of the peptide and measured together after each time point. Subsequently, the reaction was initiated by the addition of the substrate. All measurements were performed in triplicate, and data are presented as mean ± SD.

[4] = L- and D-peptide stability against pepsin hydrolysis (simulated gastric fluid); format: in vitro ADME; conditions: simulated gastric fluid with pepsin (3.2 mg/mL); simulated gastric fluid: 2 mg/mL NaCl, 3.2 mg/mL pepsin, 80 mM HCl, pH 1.0; 37 °C, 500 rpm; after 8 h; RP-HPLC C18, 214 nm; read-out: Peptide amount remaining after pepsin incubation
Method: (§1) As protein hydrolysis is initiated by pepsin, we have performed a hydrolysis experiment simulating gastric fluid for both selected L- and D-peptides. After incubation over 4 and 8 h, the sample was analysed using RP-HPLC (Supplementary Figure S8).
(§2) The preparation of the pepsin solution was performed as described before. The experiment solution contains 2 mg/mL NaCl, 3.2 mg/mL pepsin, and 80 mM HCL at a pH 1.0. This solution simulated gastric fluid. […] Samples were taken after 0 h, 4 h, and 8 h. The samples were analysed by reversed-phase high-performance liquid chromatography (RP-HPLC). The RP-HPLC system (Agilent Technologies, Santa Clara, CA, USA; 1200 series) consisted of a manual injector, quaternary pump, a thermostatted column compartment, and a variable wavelength detector. Chromatography was performed with a C18 column (Agilent Technologies, Santa Clara, CA, USA; ZORBAX 300SB-C18 5 µm, 4.6 × 250 mm) at 25 °C and 214 nm with a flow rate of 1 mL/min. The sample injection volume was 20 µL. Chromatograms were recorded and analysed with the Agilent software ChemStation (G2175BA; B03.01). Mobile phases were acetonitrile (A) and water (B), each supplemented with 0.15% trifluoroacetic acid (TFA) (v/v). The samples were measured isocratically at 10% solvent A for 30 min.

[5] = target: T1, SARS-CoV-2 3CL^pro; test: Determination of inhibition mode (Lineweaver-Burk plot); format: biochemical; conditions: 0.5 µM 3CLpro, 30 min incubation at RT, triplicate
Method: The inhibition mode was determined using different final concentrations of the inhibitors and substrate. […] The remaining L-peptides were not tested.
Briefly, 0.5 µM SARS-CoV-2 3CL^pro was incubated with the inhibitor, in various concentrations, for 30 min at RT. Subsequently, the reaction was initiated by adding the corresponding concentration series of the substrate. The data were analysed using a Lineweaver-Burk plot; therefore, the reciprocal of velocity (1/V) vs the reciprocal of the substrate concentration (1/[S]) was compared. All measurements were performed in triplicate, and data are presented as mean ± SD.

[6] = tested on: all cell types investigated; conditions: rapid translocation efficiency; cited from earlier work
Source text: These properties were mainly determined by the overall positive net surface charge distribution of crotamine. Characterised as a novel cell-penetrating polypeptide (CPP) nanocarrier, Cro has biotechnological ...

[7] = tested on: Vero CCL-81 cells; test: MTT cell viability assay; format: cell-based, African green monkey; conditions: n = 3
Method: Therefore, Vero cells were cultivated in DMEM medium supplemented with 2% fetal calf serum (FCS) and 1% penicillin/streptomycin. A total of 2000 cells per well in a volume of 100 µL were seeded on flat-bottomed 96-well plates (VWR, Radnor, USA) and incubated in a 95% humidified atmosphere with 5% CO2 at 37 °C for 24 h. Subsequently, the cells were treated with 0.2, 1, 5, 10, 25, 50, and 98 µM of each molecule at 37 °C with 5% CO2 for 24 h.
According to the manufacturer’s instructions, cell viability was measured using the Cell Proliferation Kit I (Roche, Basel, Switzerland) in a 3-fold determination. The absorbance of the formazan product was determined by measuring the absorption at 570 nm and subtracted by the absorbance at 690 nm in a microplate reader (BMG Labtech, Ortenberg, Germany). The results were normalised to the mean value of cells treated with medium only. As a […] control for cytotoxicity, 0.1% Triton X-100 diluted in the medium was used. Cell viability was calculated according to Equation (2):(T/C) × 100%(2) where T and C represented the optical density of the treated well and control groups, respectively.

[8] = tested on: SARS-CoV-2 B1.1 isolate (NRW-42) in Vero cells; format: cell-based
[9] = target: pepsin (Sus scrofa, UniProt P00791); test: L- and D-peptide stability against pepsin hydrolysis (simulated gastric fluid); format: in vitro ADME; conditions: simulated gastric fluid: 3.2 mg/mL pepsin, pH 1.0, 37 °C, 4 and 8 h; RP-HPLC
Method: as §1, §2

Chain of pepsin (P00791 60-385): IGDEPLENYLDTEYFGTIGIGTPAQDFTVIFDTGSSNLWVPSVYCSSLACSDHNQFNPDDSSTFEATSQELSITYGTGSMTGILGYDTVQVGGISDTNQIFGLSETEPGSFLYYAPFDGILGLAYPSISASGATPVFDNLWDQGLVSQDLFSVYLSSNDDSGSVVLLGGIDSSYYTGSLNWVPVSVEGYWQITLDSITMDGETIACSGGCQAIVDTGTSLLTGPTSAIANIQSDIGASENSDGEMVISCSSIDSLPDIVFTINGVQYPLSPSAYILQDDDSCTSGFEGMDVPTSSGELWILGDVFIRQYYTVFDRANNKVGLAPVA

COC(=O)[C@H](CCCCN)NC(=O)[C@H](CCCCN)NC(=O)[C@H](CO)NC(=O)[C@H](CO)NC(=O)[C@H](CCCCN)NC(=O)[C@H](Cc1c[nH]c2ccccc12)NC(=O)[C@H](CCCNC(=N)N)NC(=O)[C@H](Cc1c[nH]c2ccccc12)NC(=O)[C@H](CCCNC(=N)N)NC(=O)[C@H](CS)NC(=O)[C@H](CC(=O)O)NC(=O)[C@H](CCSC)NC(=O)[C@H](CCCCN)NC(C)=O [L-CDP3] (Ac-KMDCRWRWKSSKK-OMe)
IC50 [1]: 8.5 ± 1 µM

COC(=O)[C@H](CCCCN)NC(=O)[C@H](CCCCN)NC(=O)[C@H](CS)NC(=O)[C@H](CS)NC(=O)[C@H](CCCCN)NC(=O)[C@H](Cc1c[nH]c2ccccc12)NC(=O)[C@H](CCCNC(=N)N)NC(=O)[C@H](Cc1c[nH]c2ccccc12)NC(=O)[C@H](CCCNC(=N)N)NC(=O)[C@H](CS)NC(=O)[C@H](CC(=O)O)NC(=O)[C@H](CCSC)NC(=O)[C@H](CCCCN)NC(C)=O [L-CDP1] (Ac-KMDCRWRWKCCKK-OMe)
Aggregation-based inhibition (inhibition diminished by detergent) [2]: not observed | Inhibition of SARS-CoV-2 3CLpro over 24 h (stability of inhibitor) [3]: constant inhibition | remaining at 8 h [4]: ~50% | Concentration giving 100% protease inhibition ([1]; dose-dependent study): 30 µM | Inhibition Type [5]: Competitive

YKQCHKKGGHCFPKEKICLPPSSDFGKMDCRWRWKCCKKGSG (disulfide 4-36, 11-30, 18-37) [Crotamine]
IC50 [1]: 40 ± 3.1 µM | Time for translocation into cells [6]: ≤ 5 min

COC(=O)[C@@H](CCCCN)NC(=O)[C@@H](CCCCN)NC(=O)[C@@H](CS)NC(=O)[C@@H](CS)NC(=O)[C@@H](CCCCN)NC(=O)[C@@H](Cc1c[nH]c2ccccc12)NC(=O)[C@@H](CCCNC(=N)N)NC(=O)[C@@H](Cc1c[nH]c2ccccc12)NC(=O)[C@@H](CCCNC(=N)N)NC(=O)[C@@H](CS)NC(=O)[C@@H](CC(=O)O)NC(=O)[C@@H](CCSC)NC(=O)[C@@H](CCCCN)NC(C)=O [D-CDP1] (Ac-[dK][dM][dD][dC][dR][dW][dR][dW][dK][dC][dC][dK][dK]-OMe)
Cytotoxic effect at the calculated IC50 concentrations [7]: no cytotoxic effect | Viral RNA in cell culture supernatant [8]: significant decrease in viral RNA | Aggregation-based inhibition (inhibition diminished by detergent) [2]: not observed | Inhibition of SARS-CoV-2 3CLpro over 24 h (stability of inhibitor) [3]: constant inhibition | Stability against pepsin hydrolysis (in words) [9]: stable against pepsin hydrolysis | Inhibition Type [5]: Competitive
